Here are results for one molecule from ChEMBL document CHEMBL1151673, “Vasculyne, a new cytotoxic acetylenic alcohol from the marine sponge Cribrochalina vasculum” (1996).

Test [1] is described as follows: Cytotoxicity against human melanoma cells. The test is classed as functional. The following applies: Melanoma cell.
Test [2] can be described thus: Cytotoxicity against human colon cancer cells. The following applies: Cancer cell lines. The test is classed as functional.
Setting [3] is: read-out: LC50 (the source's name).

Converted amounts (≈) assume the structure as drawn.

Turning to `C#C[C@H](O)/C=C\CCCCCCCCCCCCCCCCCCCCCCCC/C=C/CCCCCCC/C=C/[C@@H](O)C#C` [VASCULYNE], the concentration for 50% growth inhibition (GI50) in test [1] and in test [2] was 0.2 µg/mL (≈ 0.321 µM) each time. The TGI in test [1] and in test [2] was 0.7 µg/mL (≈ 1.12 µM) in each case. The CC50 in test [1] (setting [3]) and in test [2] (setting [3]) was 6.7 µg/mL (≈ 10.8 µM) each time.

By GI50 is commonly meant the concentration at which growth is held to half of that of the control. A higher GI50 goes with less potent growth inhibition. One may read the TGI as the concentration at which net growth stops. Read a low TGI as more potent growth arrest.
